Experimental data taken from PubChem BioAssay (NCI).
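All cell lines were grown in 96-well plates and treated with compound for 48 hours. TGI is the concentration that stops growth completely.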

Tests used:
Assay in all cases: NCI-60 cell line screen, 48 h
HOP-92 NSCLC = system: HOP-92 NSCLC
TK-10 renal = system: TK-10 renal
NCI-H460 lung = system: NCI-H460 lung
ACHN renal = system: ACHN renal
HCT-116 colon = system: HCT-116 colon
M14 melanoma = system: M14 melanoma
UO-31 renal = system: UO-31 renal
SR leukemia = system: SR leukemia
OVCAR-3 ovarian = system: OVCAR-3 ovarian
MDA-MB-435 = system: MDA-MB-435
MDA-N = system: MDA-N

SMILES: CCc1cccc(C(C)C)c1NC(=O)C(=O)C(C(=O)C(=O)OC)c1nc2ccccc2[nH]c1=O (stereo unspecified)
- TGI (HOP-92 NSCLC): > 100 µM
- TGI (TK-10 renal): > 100 µM
- TGI (NCI-H460 lung): > 100 µM
- TGI (ACHN renal): > 100 µM
- TGI (HCT-116 colon): > 100 µM
- TGI (M14 melanoma): > 100 µM
- TGI (UO-31 renal): > 100 µM
- TGI (SR leukemia): > 100 µM

SMILES: Cc1ccc(NC(=O)CC(=O)n2nc(-c3ccccc3)c(N=Nc3ccc(Cl)cc3)c2-c2ccccc2)cc1
- TGI (HOP-92 NSCLC): 89 µM
- TGI (OVCAR-3 ovarian): > 100 µM
- TGI (TK-10 renal): 72 µM
- TGI (NCI-H460 lung): > 100 µM
- TGI (ACHN renal): > 100 µM
- TGI (HCT-116 colon): 33.8 µM
- TGI (M14 melanoma): > 100 µM
- TGI (UO-31 renal): > 100 µM

SMILES: CC12O[C@H](c3ccccc3)[C@H](c3ccccc3)N1C(=O)C1(C(=O)OCc3ccccc3)CC12 (stereo partly specified)
- TGI (HOP-92 NSCLC): > 100 µM
- TGI (OVCAR-3 ovarian): > 100 µM
- TGI (NCI-H460 lung): > 100 µM
- TGI (ACHN renal): > 100 µM
- TGI (HCT-116 colon): > 100 µM
- TGI (M14 melanoma): > 100 µM
- TGI (UO-31 renal): > 100 µM

SMILES: CN(C)C(=O)CC(C(=O)O)c1c[nH]c2ccccc12 (stereo unspecified)
- TGI (OVCAR-3 ovarian): > 100 µM
- TGI (TK-10 renal): > 100 µM
- TGI (NCI-H460 lung): > 100 µM
- TGI (ACHN renal): > 100 µM
- TGI (HCT-116 colon): > 100 µM
- TGI (M14 melanoma): > 100 µM
- TGI (UO-31 renal): 41.6 µM
- TGI (SR leukemia): > 100 µM

SMILES: N#C/C(=C/c1cccnc1)C(=O)c1ccccc1
- TGI (HOP-92 NSCLC): > 100 µM
- TGI (OVCAR-3 ovarian): > 100 µM
- TGI (TK-10 renal): > 100 µM
- TGI (NCI-H460 lung): > 100 µM
- TGI (ACHN renal): > 100 µM
- TGI (HCT-116 colon): > 100 µM
- TGI (M14 melanoma): > 100 µM
- TGI (UO-31 renal): > 100 µM
- TGI (SR leukemia): > 100 µM

SMILES: COC1=CC(=O)C(O)=C(C[C@@]2(C)[C@@H]3CCC[C@H](COC(=O)CCCCCNC(=O)OC(C)(C)C)[C@@]3(C)CC[C@@H]2C)C1=O
- TGI (HOP-92 NSCLC): > 10 µM
- TGI (OVCAR-3 ovarian): > 10 µM
- TGI (TK-10 renal): > 10 µM
- TGI (ACHN renal): > 10 µM
- TGI (HCT-116 colon): > 10 µM
- TGI (M14 melanoma): > 10 µM
- TGI (MDA-MB-435): > 10 µM
- TGI (UO-31 renal): > 10 µM
- TGI (SR leukemia): > 10 µM
- TGI (MDA-N): > 10 µM

SMILES: C/C(Cl)=N\OC(=O)Nc1ccccc1C(F)(F)F
- TGI (HOP-92 NSCLC): 19 µM
- TGI (OVCAR-3 ovarian): 29.2 µM
- TGI (TK-10 renal): 28.8 µM
- TGI (NCI-H460 lung): > 100 µM
- TGI (ACHN renal): 35.2 µM
- TGI (HCT-116 colon): > 100 µM
- TGI (UO-31 renal): > 100 µM
- TGI (SR leukemia): 44.9 µM
- TGI (MDA-N): 31.7 µM

SMILES: c1ccc2nc3[nH]c4ccccc4c3cc2c1
- TGI (HOP-92 NSCLC): 35.5 µM
- TGI (TK-10 renal): 10.7 µM
- TGI (NCI-H460 lung): 1.46 µM
- TGI (ACHN renal): 12.2 µM
- TGI (M14 melanoma): 1.85 µM
- TGI (MDA-MB-435): 1.97 µM
- TGI (UO-31 renal): 13.1 µM
- TGI (MDA-N): 2 µM

SMILES: NC(=O)N/N=C(\Cc1nc2ccc(C(=O)c3ccccc3)cc2[nH]c1=O)C(=O)Nc1ccc(Br)cc1
- TGI (HOP-92 NSCLC): > 100 µM
- TGI (OVCAR-3 ovarian): > 100 µM
- TGI (TK-10 renal): > 100 µM
- TGI (NCI-H460 lung): > 100 µM
- TGI (ACHN renal): > 100 µM
- TGI (HCT-116 colon): > 100 µM
- TGI (M14 melanoma): > 100 µM
- TGI (UO-31 renal): > 100 µM
- TGI (SR leukemia): > 100 µM

SMILES: Cc1cc(N(CCC#N)CCC#N)ccc1/C=C(\NC(=O)/C=C/c1ccccc1)NC(=O)Nc1ccc(Cl)cc1
- TGI (HOP-92 NSCLC): > 100 µM
- TGI (OVCAR-3 ovarian): > 100 µM
- TGI (NCI-H460 lung): > 100 µM
- TGI (ACHN renal): > 100 µM
- TGI (HCT-116 colon): > 100 µM
- TGI (M14 melanoma): > 100 µM
- TGI (UO-31 renal): > 100 µM

SMILES: O=C(CSc1nnc(Cc2ccccc2)o1)Nc1ccc(Cl)cc1
- TGI (OVCAR-3 ovarian): > 100 µM
- TGI (TK-10 renal): > 100 µM
- TGI (NCI-H460 lung): > 100 µM
- TGI (ACHN renal): > 100 µM
- TGI (HCT-116 colon): > 100 µM
- TGI (M14 melanoma): > 100 µM
- TGI (UO-31 renal): > 100 µM

SMILES: CCOC(OCC)C(CC)[Se]c1ccccc1[N+](=O)[O-] (stereo unspecified)
- TGI (HOP-92 NSCLC): > 61.1 µM
- TGI (OVCAR-3 ovarian): 6.56 µM
- TGI (TK-10 renal): > 100 µM
- TGI (NCI-H460 lung): 18.6 µM
- TGI (ACHN renal): > 100 µM
- TGI (HCT-116 colon): 30.2 µM
- TGI (M14 melanoma): 15.3 µM
- TGI (UO-31 renal): > 100 µM
- TGI (SR leukemia): > 40.1 µM
- TGI (MDA-N): > 100 µM

SMILES: N#CC1C(=O)Nc2sc(C(=O)c3ccc(Br)cc3)c(N)c2C12CCCCC2 (stereo unspecified)
- TGI (OVCAR-3 ovarian): 52.7 µM
- TGI (TK-10 renal): > 100 µM
- TGI (NCI-H460 lung): > 100 µM
- TGI (ACHN renal): > 100 µM
- TGI (HCT-116 colon): > 100 µM
- TGI (M14 melanoma): 39 µM
- TGI (MDA-MB-435): 58.9 µM
- TGI (UO-31 renal): > 100 µM
- TGI (SR leukemia): > 100 µM
- TGI (MDA-N): 55.4 µM

SMILES: CC1=C(C(=O)OCCO[N+](=O)[O-])C(c2ccccc2C(F)(F)F)C(C(=O)OC(C)C)=C(C)N1 (stereo unspecified)
- TGI (HOP-92 NSCLC): 26.8 µM
- TGI (OVCAR-3 ovarian): 29.2 µM
- TGI (TK-10 renal): 77.4 µM
- TGI (NCI-H460 lung): 58.6 µM
- TGI (ACHN renal): > 100 µM
- TGI (HCT-116 colon): 29.1 µM
- TGI (M14 melanoma): 31.4 µM
- TGI (MDA-MB-435): 53.5 µM
- TGI (UO-31 renal): 33.6 µM
- TGI (SR leukemia): > 100 µM

SMILES: C=C1CC/C=C(/C(=O)O)CC[C@H]2[C@@H]1CC2(C)C
- TGI (HOP-92 NSCLC): > 100 µM
- TGI (OVCAR-3 ovarian): > 100 µM
- TGI (TK-10 renal): > 100 µM
- TGI (NCI-H460 lung): > 100 µM
- TGI (ACHN renal): > 100 µM
- TGI (HCT-116 colon): > 100 µM
- TGI (M14 melanoma): > 100 µM
- TGI (MDA-MB-435): > 100 µM
- TGI (UO-31 renal): > 100 µM
- TGI (MDA-N): > 100 µM

SMILES: O=c1nc2n(cc1/C=C\Br)C1CC(O)C(CO2)O1 (stereo unspecified)
- TGI (OVCAR-3 ovarian): > 100 µM
- TGI (TK-10 renal): > 100 µM
- TGI (NCI-H460 lung): > 100 µM
- TGI (ACHN renal): > 100 µM
- TGI (HCT-116 colon): > 100 µM
- TGI (MDA-MB-435): > 100 µM
- TGI (UO-31 renal): > 100 µM
- TGI (MDA-N): > 100 µM

SMILES: CCOC(=O)c1c(C)n(Cc2ccccc2)c2c1cc(O)c1[nH]c3c(c12)CCCC3
- TGI (HOP-92 NSCLC): 2.11 µM
- TGI (OVCAR-3 ovarian): 6.2 µM
- TGI (TK-10 renal): 23.6 µM
- TGI (NCI-H460 lung): 7.32 µM
- TGI (ACHN renal): 23.9 µM
- TGI (HCT-116 colon): 27.8 µM
- TGI (M14 melanoma): 20.9 µM
- TGI (MDA-MB-435): 24.4 µM
- TGI (UO-31 renal): 6.43 µM
- TGI (MDA-N): 28.2 µM

SMILES: O=[N+]([O-])c1ccc(NC2OCC(O)C(O)C2O)cc1 (stereo unspecified)
- TGI (HOP-92 NSCLC): > 100 µM
- TGI (OVCAR-3 ovarian): > 100 µM
- TGI (TK-10 renal): > 100 µM
- TGI (NCI-H460 lung): > 100 µM
- TGI (ACHN renal): > 100 µM
- TGI (M14 melanoma): > 100 µM
- TGI (UO-31 renal): > 100 µM
- TGI (SR leukemia): > 100 µM

SMILES: Oc1ccc2c(c1)OCC(O)(c1ccccc1O)C2 (stereo unspecified)
- TGI (HOP-92 NSCLC): > 100 µM
- TGI (OVCAR-3 ovarian): > 100 µM
- TGI (TK-10 renal): > 100 µM
- TGI (NCI-H460 lung): > 100 µM
- TGI (ACHN renal): > 100 µM
- TGI (HCT-116 colon): > 100 µM
- TGI (M14 melanoma): > 100 µM
- TGI (MDA-MB-435): > 100 µM
- TGI (UO-31 renal): > 100 µM
- TGI (MDA-N): > 100 µM

SMILES: Cc1ccc(/C=C2\NC(=S)N(CN3CCOCC3)C2=O)cc1
- TGI (HOP-92 NSCLC): > 100 µM
- TGI (OVCAR-3 ovarian): > 100 µM
- TGI (TK-10 renal): > 100 µM
- TGI (ACHN renal): > 100 µM
- TGI (HCT-116 colon): > 100 µM
- TGI (M14 melanoma): > 100 µM
- TGI (MDA-MB-435): > 100 µM
- TGI (UO-31 renal): > 100 µM
- TGI (SR leukemia): > 100 µM
- TGI (MDA-N): > 100 µM

SMILES: Nc1nc2c(ncn2CCOC(c2ccccc2)P(=O)(O)O)c(=O)[nH]1 (stereo unspecified)
- TGI (OVCAR-3 ovarian): > 100 µM
- TGI (TK-10 renal): > 100 µM
- TGI (NCI-H460 lung): > 100 µM
- TGI (ACHN renal): > 100 µM
- TGI (HCT-116 colon): > 100 µM
- TGI (UO-31 renal): > 100 µM
- TGI (SR leukemia): > 100 µM

SMILES: CCCCCCCCCCCCCCCCCCNc1ccn(C2OC(COP(=O)(O)O)C(O)C2O)c(=O)n1 (stereo unspecified)
- TGI (HOP-92 NSCLC): > 100 µM
- TGI (OVCAR-3 ovarian): > 100 µM
- TGI (TK-10 renal): > 100 µM
- TGI (ACHN renal): > 100 µM
- TGI (HCT-116 colon): > 100 µM
- TGI (M14 melanoma): > 100 µM
- TGI (MDA-MB-435): > 100 µM
- TGI (UO-31 renal): > 100 µM

SMILES: c1ccc2c(c1)CCc1c-2n(CCN2CCCCC2)c2ccccc12
- TGI (HOP-92 NSCLC): 35 µM
- TGI (OVCAR-3 ovarian): 31.1 µM
- TGI (TK-10 renal): 35.9 µM
- TGI (NCI-H460 lung): 29.7 µM
- TGI (ACHN renal): 39.3 µM
- TGI (HCT-116 colon): 25.5 µM
- TGI (M14 melanoma): 29.7 µM
- TGI (MDA-MB-435): 74.4 µM
- TGI (UO-31 renal): 23.7 µM
- TGI (SR leukemia): 32.3 µM
